Common to all, as to assay type: binding
One test deals with T1, BRPF1B (Homo sapiens, UniProt P55201).
T1 construct: dissociation constants KD for two bromodomains (BRD4(1) and BRPF1B)
T1 sequence (P55201 628-732 limits assumed): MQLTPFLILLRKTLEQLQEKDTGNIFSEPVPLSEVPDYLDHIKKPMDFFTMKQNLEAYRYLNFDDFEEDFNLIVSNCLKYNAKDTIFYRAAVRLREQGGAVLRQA
The test can be described thus: Dissociation constant KD BRPF1B.

For a further test, the target named is T2, BRD9 (Homo sapiens, UniProt Q9H8M2).
T2 construct: T7 phage strains displaying bromodomains were grown; host or cells: T7 phage in E. coli derived from BL21
T2 sequence (Q9H8M2 136-240 limits assumed): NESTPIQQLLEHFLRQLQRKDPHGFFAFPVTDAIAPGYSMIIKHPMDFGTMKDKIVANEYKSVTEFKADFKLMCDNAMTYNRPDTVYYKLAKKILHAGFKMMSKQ
In words: BROMOscan Kd determination BRD9. The protocol:
(§1) Bromodomain profiling was carried out on the basis of BROMOscan™. This platform accounted for the indirect determination of the dissociation constants between 19 bromodomains and the compound of formula (13), by binding competition against a reference immobilized ligand. Compounds that bind the bromodomain prevent its binding to the immobilized ligand thus reducing the amount of protein captured. […] Hits are identified by measuring the amount of bromodomain captured in test versus control samples. Bromodomain assays for Kd determination: T7 phage strains displaying bromodomains were grown in parallel in 24-well blocks in an E. coli host derived from the BL21 strain. E. coli were grown to log-phase and infected with T7 phage from a frozen stock (multiplicity of infection=0.4) and incubated with shaking at 32° C. until lysis (90-150 minutes). The lysates were centrifuged (5,000×g) and filtered (0.2 μm) to remove cell debris. […] The liganded beads were blocked with excess biotin and washed with blocking buffer (SeaBlock (Pierce), 1% BSA, 0.05% Tween 20, 1 mM DTT) to remove unbound ligand and to reduce non-specific phage binding. […] Test compounds were prepared as 1000× stocks in 100% DMSO. Kds were determined using an 11-point 3-fold compound dilution series with one DMSO control point. All compounds for Kd measurements are distributed by acoustic transfer (non-contact dispensing) in 100% DMSO. The compounds were then diluted directly into the assays such that the final concentration of DMSO was 0.09%. All reactions performed in polypropylene 384-well plates. Each was a final volume of 0.02 ml. […] The bromodomain concentration in the eluates was measured by qPCR. […] All compounds for Kd measurements are distributed by acoustic transfer (non-contact dispensing) in 100% DMSO. The compounds were then diluted directly into the assays such that the final concentration of DMSO was 0.09%. Most Kds were determined using a compound top concentration=10,000 nM. If the initial Kd determined was <0.169 nM (the lowest concentration tested), the measurement was repeated with a serial dilution starting at a lower top concentration. Binding Constants (Kds): Binding constants (Kds) were calculated with a standard dose-response curve using the Hill equation: The Hill Slope was set to −1. Curves were fitted using a non-linear least square fit with the Levenberg-Marquardt algorithm.

Another test deals with T3, CECR2 (Homo sapiens, UniProt Q9BXF3).
T3 construct: T7 phage strains displaying bromodomains were grown; host or cells: T7 phage in E. coli derived from BL21
T3 sequence (Q9BXF3 434-538 limits assumed): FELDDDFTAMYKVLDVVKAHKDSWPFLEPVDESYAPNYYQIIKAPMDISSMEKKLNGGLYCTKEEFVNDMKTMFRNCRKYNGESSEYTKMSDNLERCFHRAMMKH
In words: BROMOscan Kd determination CECR2. The protocol: as §1

The next test has as its target T4, BRDT(1) (Homo sapiens, UniProt Q58F21).
T4 construct: T7 phage strains displaying bromodomains were grown; host or cells: T7 phage in E. coli derived from BL21
In words: BROMOscan Kd determination BRDT(1). The protocol: as §1

The target of test [1] is T5, BRD4(1) (Homo sapiens, UniProt O60885).
T5 construct: BRD4-BD1 was expressed and purified as described previously; made in house
The test can be described thus: Isothermal titration calorimetry, dissociation constant KD BRD4(1). As for the experimental part:
BRD4-BD1 was expressed and purified as described previously (Filippakopoulos et al, (2012), Cell 149(1): […]) with the exception of the final buffer for crystallization and ITC analysis (20 mM Hepes/NaOH pH 7.5, 150 mM NaCl). Crystals were grown in the presence of 3.5 M Na-Formate (pH 7.5) at a protein concentration of 10 mg/ml and a ligand concentration of 2 mM added directly to the protein prior to crystallization from a 100 mM stock solution in DMSO. Data were collected at 100K using either a Rigaku HF-007 rotating anode X-ray generator equipped with VariMaxHF optics and a Saturn944 CCD detector or a mar345 image plate respectively at λ=1.54179 Å or at the PXI beamline at the Swiss Light Source at λ=1.000 Å with a Pilatus detector. Data processing and reduction was done with iMOSFLM (Leslie AGW PH (2007), Evolving Methods for Macromolecular Crystallography 245, 41.51), POINTLESS, and SCALA (Kabsch W (2010) Xds. Acta crystallographica. Section D, Biological crystallography 66(Pt 2):125-132; Bruker (2008) SADABS, SAINT and XPREP (Bruker AXS Inc., Madison, Wis., USA); Collaborative Computational Project N (1994) The CCP4 suite: programs for protein crystallography, Acta crystallographica, Section D, Biological crystallography 50(Pt 5):760-763), or with XDS, XSCALE, XDSCONV (Evans P (2006), Scaling and assessment of data quality, Acta crystallographica, Section D, Biological crystallography 62(Pt 1):72-82), and XPREP (Evans P R (2011), An introduction to data reduction: space-group determination, scaling and intensity statistics, Acta crystallographica, Section D, Biological crystallography 67(Pt 4):282-292).
Data were obtained in discrete titration experiments with an injection volume of 12 μl per injection. Subsequently, the heats per injection were calculated as integrals and after normalization against the molar concentrations plotted against the molar ratio as implemented in Microcal Origin. Finally, data were fitted according to a single set of sites binding model with
The dissociation constant Kd, is commonly used to describe the affinity between a ligand L and a protein, i.e. how tightly a ligand binds to a particular protein. The dissociation constant has molar units which correspond to the concentration of ligand at which the binding site on a particular protein is half occupied, i.e. the concentration of the ligand at which the concentration of protein with ligand bound equals the concentration of protein with no ligand bound. The smaller the dissociation constant, the higher the affinity between ligand and protein.
A general note: ITC needs no label: the signal is the heat of the interaction.

A further test concerns the target T6, BRPF1 (Homo sapiens, UniProt P55201).
T6 construct: T7 phage strains displaying bromodomains were grown; host or cells: T7 phage in E. coli derived from BL21
T6 sequence (P55201 628-732 limits assumed): T1 sequence (P55201 628-732 limits assumed)
The test can be described thus: BROMOscan Kd determination BRPF1. As for the experimental part:
as §1

The target of test [2] is T5, BRD4(1). In words: BROMOscan Kd determination BRD4(1). As for the experimental part:
as §1

The target of the next test is T7, BRD7 (Homo sapiens, UniProt Q9NPI1).
T7 construct: T7 phage strains displaying bromodomains were grown; host or cells: T7 phage in E. coli derived from BL21
T7 sequence (Q9NPI1 131-235 limits assumed): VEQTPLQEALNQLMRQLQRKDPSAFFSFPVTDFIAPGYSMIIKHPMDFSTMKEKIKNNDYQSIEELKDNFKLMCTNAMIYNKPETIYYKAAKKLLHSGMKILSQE
The test can be described thus: BROMOscan Kd determination BRD7. The protocol:
as §1

The target of the next test is T8, BRDT(2) (Homo sapiens, UniProt Q58F21).
T8 construct: T7 phage strains displaying bromodomains were grown; host or cells: T7 phage in E. coli derived from BL21
In words: BROMOscan Kd determination BRDT(2). The protocol:
Bromodomain profiling was carried out on the basis of BROMOscan™. This platform accounted for the indirect determination of the dissociation constants between 19 bromodomains and the compound of formula (13), by binding competition against a reference immobilized ligand. Compounds that bind the bromodomain prevent its binding to the immobilized ligand thus reducing the amount of protein captured. […] Hits are identified by measuring the amount of bromodomain captured in test versus control samples. Bromodomain assays for Kd determination: T7 phage strains displaying bromodomains were grown in parallel in 24-well blocks in an E. coli host derived from the BL21 strain. E. coli were grown to log-phase and infected with T7 phage from a frozen stock (multiplicity of infection=0.4) and incubated with shaking at 32° C. until lysis (90-150 minutes). The lysates were centrifuged (5,000×g) and filtered (0.2 μm) to remove cell debris. […] Kds were determined using an 11-point 3-fold compound dilution series with one DMSO control point. […] The bromodomain concentration in the eluates was measured by qPCR. […] Most Kds were determined using a compound top concentration=10,000 nM. […] Binding Constants (Kds): Binding constants (Kds) were calculated with a standard dose-response curve using the Hill equation: The Hill Slope was set to −1. […]

Read-outs that look alike come from different tables or passages of the source.

Consider `CCCCc1[nH]c(-c2cc(N)ccc2Cl)c2c1C(=O)CCCC2` [Compound 27, 1-(5-Amino-2-chlorophenyl)-3-butyl-5,6,7,8-tetrahydrocyclohepta[c]pyrrol-4(2H)-one], for which the Kd is more than 10000 nM at BRPF1B; 800 nM on BRD9 (Table 3 compound 27); more than 10000 nM on CECR2 (Table 3 compound 27); more than 10000 nM on BRDT(1) (Table 3 compound 27); more than 10000 nM on BRD4(1) [1]; more than 10000 nM on BRPF1 (Table 3 compound 27). The Kd on BRD4(1) [2] (Table 3 compound 27) and at BRD7 (Table 3 compound 27) was more than 10000 nM in each case.

On to `COc1ccc(S(=O)(=O)N2CCOCC2)cc1NC(=O)c1[nH]c(C)c2c1CCCCC2=O` [Compound 13, N-(2-methoxy-5-(morpholinosulfonyl)phenyl)-3-methyl-4-oxo-2,4,5,6,7,8-hexahydrocyclohepta[c]pyrrole-1-carboxamide], for which the Kd was determined as 67 nM on BRD9; 670 nM on BRDT(1); 77.8 nM at BRD4(1) [1]; 520 nM at BRPF1; 60 nM on BRD4(1) [2]; 1000 nM on BRDT(2). Also, binding at BRD7 was put at a Kd of 85 nM.

On to `Cc1[nH]c(-c2cc(N)ccc2Cl)c2c1C(=O)CCCC2` [Compound 23], for which the Kd on BRPF1B was found to be 166 nM; on BRD9 it was 67 nM; on CECR2 it was 970 nM; on BRDT(1), 240 nM; on BRPF1 it was 130 nM; at BRD4(1) [2], 250 nM. Further, the figures for the Kd on BRDT(2) and at BRD7 were 620 nM and 430 nM, respectively.

`CCCc1[nH]c(-c2cc(N)ccc2Cl)c2c1C(=O)CCCC2` [Compound 26, 1-(5-Amino-2-chlorophenyl)-3-propyl-5,6,7,8-tetrahydrocyclohepta[c]pyrrol-4(2H)-one]: the Kd on BRPF1B is 7000 nM; on BRD9, 150 nM; at CECR2, more than 10000 nM; on BRDT(1), 6100 nM; on BRD4(1) [1], 6900 nM; on BRPF1 it was 7000 nM. In addition, the results for the Kd on BRD4(1) [2] and on BRD7 were 6900 nM and 1100 nM, respectively.

Broadly, the Kd is the equilibrium constant for the complex coming apart. Higher therefore signals weaker binding.

The values are drawn from patent publication US20220055989A1, “CONDENSED PYRROLES AS NOVEL BROMODOMAIN INHIBITORS” (ALBERT LUDWING UNIVERSITÄT FREIBURG, priority 2018, published 2022).
